Measurements from patent US8183387B2, “Phenylpyrazole derivatives” (Taisho Pharmaceutical Co., Ltd, priority 2007, dated 2012).

Target: human H3 receptor (Homo sapiens, UniProt Q9Y5N1)
Assay: H3 receptor binding test (R(−)-α-methyl[3H]histamine)
Design: purchased Euroscreen ES-392-M; host or cells: CHO-K1
Conditions: inhibition of R(−)-α-methyl[3H]histamine (2 nM) binding, membrane of human H3 receptor-expressing CHO-K1 cells
Protocol: A membrane preparation of human H3 receptor-expressing CHO-K1 cells (Euroscreen, ES-392-M, 15 μg protein/200 μl), R(−)-α-methyl[^3H]histamine (Amersham, TRK-1017, specific activity: 1.74 TBq/mmol, 2 nM) and a test drug were reacted at room temperature for 1 hour. After completion of the reaction, the reaction mixture was subjected to suction filtration through a 0.3% polyethyleneimine-treated glass filter (GF/C). The glass filter was washed five times with 50 mM Tris-HCl washing solution (pH 7.4) containing 5 mM EDTA. After washing, the glass filter was dried and a scintillator was added thereto, followed by measurement of radioactivity on the filter using a liquid scintillation counter.
A fixed concentration (2 nM) of R(−)-α-methyl[^3H]histamine was reacted under the above conditions with each test drug at various concentrations to obtain an inhibition curve.

human H3 receptor, sequence (Q9Y5N1 whole entry): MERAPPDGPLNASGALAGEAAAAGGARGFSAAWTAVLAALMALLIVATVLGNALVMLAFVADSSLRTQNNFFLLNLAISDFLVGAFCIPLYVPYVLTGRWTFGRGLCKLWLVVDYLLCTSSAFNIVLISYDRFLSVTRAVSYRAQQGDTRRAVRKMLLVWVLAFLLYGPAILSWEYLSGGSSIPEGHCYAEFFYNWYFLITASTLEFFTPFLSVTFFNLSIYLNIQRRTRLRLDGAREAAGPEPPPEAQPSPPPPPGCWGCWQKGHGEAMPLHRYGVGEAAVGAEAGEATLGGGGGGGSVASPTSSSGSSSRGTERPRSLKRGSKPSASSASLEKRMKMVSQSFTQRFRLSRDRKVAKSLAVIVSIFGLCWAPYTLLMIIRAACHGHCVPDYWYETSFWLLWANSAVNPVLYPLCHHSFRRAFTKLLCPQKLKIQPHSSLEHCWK

| Compound | IC50 [nM] |
| --- | --- |
| CC1CCCN1CCCOc1ccc(-n2cc(C(=O)Nc3ccc(F)cc3)cn2)cc1 (stereo not shown) [Example 15, N-(4-fluorophenyl)-1-{4-[3-(2-methylpyrrolidin-1-yl)propoxy]phenyl}-1H-pyrazole-4-carboxamide] | 1.8 |
| C[C@@H]1CCCN1CCCOc1ccc(-n2cc(NC(=O)Cc3cccnc3)cn2)cc1 [Example 46, N-[1-(4-{3-[(2R)-2-methylpyrrolidin-1-yl]propoxy}phenyl)-1H-pyrazol-4-yl]-2-(pyridin-3-yl)acetamide] | 1.4 |
| CC1(C)CCCN1CCCOc1ccc(-n2cc(C(=O)N3CCOCC3)cn2)cc1 [Example 10, 4-[(1-{4-[3-(2,2-dimethylpyrrolidin-1-yl)propoxy]phenyl}-1H-pyrazol-4-yl)carbonyl]morpholine] | 49.4 |
| O=C(c1cnn(-c2ccc(OCCCN3CCCC3(F)F)cc2)c1)N1CCOCC1 [Example 59, (1-{4-[3-(2,2-difluoropyrrolidin-1-yl)propoxy]phenyl}-1H-pyrazol-4-yl)(morpholin-4-yl)methanone] | 1180 |
| CC1CCCN1CCCOc1ccc(-n2cc(N3C(=O)CCC3=O)cn2)cc1 (stereo not shown) [Example 52, 1-(1-{4-[3-(2-methylpyrrolidin-1-yl)propoxy]phenyl}-1H-pyrazol-4-yl)pyrrolidine-2,5-dione] | 6 |
| CC(=O)c1cnn(-c2ccc(OCCCN3CCC[C@H]3C)cc2)c1 [Example 27, 1-[1-(4-{3-[(2R)-2-methylpyrrolidin-1-yl]propoxy}phenyl)-1H-pyrazol-4-yl]ethanone] | 1.6 |
| CC1CCCN1CCCOc1ccc(-n2cc(C(=O)NCc3ccc(F)cc3)cn2)cc1 (stereo not shown) [Example 18, 1-{4-[3-(2-methylpyrrolidin-1-yl)-propoxy]-phenyl}-1H-pyrazole-4-carboxylic acid 4-fluorobenzylamide] | 3 |
| C[C@@H]1CCCN1CCCOc1ccc(-n2cc(NC(=O)Cc3ccc(O)cc3)cn2)cc1 [Example 45, 2-(4-hydroxyphenyl)-N-[1-(4-{3-[(2R)-2-methylpyrrolidin-1-yl]propoxy}phenyl)-1H-pyrazol-4-yl]acetamide] | 1.1 |
| O=C(Nc1ccc(F)cc1)c1cnn(-c2ccc(OCCCN3CCCC3)cc2)c1 [Example 16, N-(4-fluorophenyl)-1-[4-(3-pyrrolidin-1-ylpropoxy)phenyl]-1H-pyrazole-4-carboxamide] | 5.9 |
| C[C@H]1CCCN1CCCOc1ccc(-n2cc(C(N)=O)cn2)cc1 [Example 4, 1-(4-{3-[(2S)-2-methylpyrrolidin-1-yl]propoxy}phenyl)-1H-pyrazole-4-carboxamide] | 33 |
| C[C@@H]1CCCN1CCCOc1ccc(-n2cc(C(=O)N(CCO)CCO)cn2)cc1 [Example 20, 1-(4-{3-[(2R)-2-methylpyrrolidin-1-yl]propoxy}phenyl)-1H-pyrazole-4-carboxylic acid bis-(2-hydroxyethyl)-amide] | 6.9 |
| C[C@@H]1CCCN1CCCOc1ccc(-n2cc([N+](=O)[O-])cn2)cc1 [Example 28, 1-(4-{3-[(2R)-2-methylpyrrolidin-1-yl]propoxy}phenyl)-4-nitro-1H-pyrazole] | 3.1 |
| CC1CCCN1CCCOc1ccc(-n2cc(NS(=O)(=O)c3ccc(C#N)cc3)cn2)cc1 (stereo not shown) [Example 50, 4-cyano-N-(1-{4-[3-(2-methylpyrrolidin-1-yl)propoxy]phenyl}-1H-pyrazol-4-yl)benzenesulfonamide] | 31.9 |
| CC1CCCN1CCCOc1ccc(-n2cc(C(=O)N(C)C)cn2)cc1 (stereo not shown) [Example 19, 1-{4-[3-(2-methylpyrrolidin-1-yl)-propoxy]-phenyl}-1H-pyrazole-4-carboxylic acid dimethylamide] | 5.1 |
| Cc1cc(OCCCN2CCC[C@H]2C)ccc1-n1cc(C(=O)N2CCOCC2)cn1 [Example 63, [1-(2-methyl-4-{3-[(2R)-2-methylpyrrolidin-1-yl]propoxy}phenyl)-1H-pyrazol-4-yl](morpholin-4-yl)methanone] | 20.7 |
| C[C@@H]1CCCN1CCCOc1ccc(-n2cc(C#N)cn2)cc1 [Example 3, 1-(4-{3-[(2R)-2-methylpyrrolidin-1-yl]propoxy}phenyl)-1H-pyrazole-4-carbonitrile] | 4.6 |
| Cc1ccc(NC(=O)c2cnn(-c3ccc(OCCCN4CCCC4C)cc3)c2)cc1 (stereo not shown) [Example 17, N-(4-methylphenyl)-1-{4-[3-(2-methylpyrrolidin-1-yl)propoxy]phenyl}-1H-pyrazole-4-carboxamide] | 3.9 |
| O=C(c1cnn(-c2ccc(OCCCN3CCCC3)cc2)c1)N1CCOCC1 [Example 8, 4-({1-[4-(3-pyrrolidin-1-ylpropoxy)phenyl]-1H-pyrazol-4-yl}carbonyl)morpholine] | 24.2 |
| CC1CCC(C)N1CCCOc1ccc(-n2cc(C(=O)NC(C)(C)C)cn2)cc1 (stereo not shown) [Example 12, N-tert-butyl-1-{4-[3-(2,5-dimethylpyrrolidin-1-yl)propoxy]phenyl}-1H-pyrazole-4-carboxamide] | 19.3 |

| Compound | IC50 [nM] |
| --- | --- |
| C[C@@H]1CCCN1CCCOc1ccc(-n2cc(C(N)=O)cn2)cc1 [Example 2, 1-(4-{3-[(2R)-2-methylpyrrolidin-1-yl]propoxy}phenyl)-1H-pyrazole-4-carboxamide] | 6.5 |
| C[C@@H]1CCCN1CCCOc1ccc(-n2cc(C(=O)c3ccc(F)cc3)cn2)cc1 [Example 23, (4-fluorophenyl)[1-(4-{3-[(2R)-2-methylpyrrolidin-1-yl]propoxy}phenyl)-1H-pyrazol-4-yl]methanone] | 2.2 |
| CCC1CCCN1CCCOc1ccc(-n2cc(C(=O)N3CCOCC3)cn2)cc1 (stereo not shown) [Example 58, (1-{4-[3-(2-ethylpyrrolidin-1-yl)propoxy]phenyl}-1H-pyrazol-4-yl)(morpholin-4-yl)methanone] | 8.7 |
| C[C@@H]1CCCN1CCCCOc1ccc(-n2cc(C(=O)N3CCOCC3)cn2)cc1 [Example 61, [1-(4-{4-[(2R)-2-methylpyrrolidin-1-yl]butoxy}phenyl)-1H-pyrazol-4-yl](morpholin-4-yl)methanone] | 39.2 |
| C[C@@H]1CCCN1CCCOc1ccc(-n2cc(NC(=O)Cc3ccncc3)cn2)cc1 [Example 47, N-[1-(4-{3-[(2R)-2-methylpyrrolidin-1-yl]propoxy}phenyl)-1H-pyrazol-4-yl]-2-(pyridin-4-yl)acetamide] | 1.5 |
| CC(C)(C)NC(=O)c1cnn(-c2ccc(OCCCN3CCCC3)cc2)c1 [Example 13, N-tert-butyl-1-[4-(3-pyrrolidin-1-ylpropoxy)phenyl]-1H-pyrazole-4-carboxamide] | 6.1 |
| CC1CCCN1CCCOc1ccc(-n2cc(C(=O)c3ccccn3)cn2)cc1 (stereo not shown) [Example 25, (1-{4-[3-(2-methylpyrrolidin-1-yl)propoxy]phenyl}-1H-pyrazol-4-yl)(pyridin-2-yl)methanone] | 3.5 |
| O=C(c1cnn(-c2ccc(OCCCN3CCCCC3)cc2)c1)N1CCOCC1 [Example 9, 4-({1-[4-(3-piperidin-1-ylpropoxy)phenyl]-1H-pyrazol-4-yl}carbonyl)morpholine] | 8.5 |
| CCOC(=O)c1cnn(-c2ccc(OCCCN3CCC[C@H]3C)cc2)c1 [Example 1, 1-(4-{3-[(2R)-2-methylpyrrolidin-1-yl]propoxy}phenyl)-1H-pyrazole-4-carboxylic acid ethyl ester] | 24 |
| O=C1CCCN1c1cnn(-c2ccc(OCCCN3CCCC3)cc2)c1 [Example 32, 1-{1-[4-(3-pyrrolidin-1-ylpropoxy)phenyl]-1H-pyrazol-4-yl}pyrrolidine-2-one] | 8.3 |
| C[C@@H]1CCCN1CCCOc1ccc(-n2cc(C(=O)c3ccccc3)cn2)cc1 [Example 24, [1-(4-{3-[(2R)-2-methylpyrrolidin-1-yl]propoxy}phenyl)-1H-pyrazol-4-yl](phenyl)methanone] | 3.3 |
| CC1CCCN1CCCOc1ccc(-n2cc(N3CCOC3=O)cn2)cc1 (stereo not shown) [Example 34, 3-(1-{4-[3-(2-methylpyrrolidin-1-yl)propoxy]phenyl}-1H-pyrazol-4-yl)-1,3-oxazolidin-2-one] | 2.1 |
| C[C@@H]1CCCN1CCCOc1ccc(-n2cc(C(=O)c3ccncc3)cn2)cc1 [Example 26, [1-(4-{3-[(2R)-2-methylpyrrolidin-1-yl]propoxy}phenyl)-1H-pyrazol-4-yl](pyridin-4-yl)methanone] | 2.6 |
| C[C@@H]1CN(C(=O)c2cnn(-c3ccc(OCCCN4CCC[C@H]4C)cc3)c2)C[C@H](C)O1 [Example 53, (2,6-dimethylmorpholin-4-yl)[1-(4-{3-[(2R)-2-methylpyrrolidin-1-yl]propoxy}phenyl)-1H-pyrazol-4-yl]methanone] | 6.1 |
| C[C@@H]1CCCN1CCCOc1ccc(-n2cc(C(=O)N3CCC(F)(F)C3)cn2)cc1 [Example 22, 4-[(3,3-difluoropyrrolidin-1-yl)carbonyl]-1-(4-{3-[(2R)-2-methylpyrrolidin-1-yl]propoxy}phenyl)-1H-pyrazole] | 2.7 |
| CC1CCN(CCCOc2ccc(-n3cc(C(=O)N4CCOCC4)cn3)cc2)C1 (stereo not shown) [Example 57, (1-{4-[3-(3-methylpyrrolidin-1-yl)propoxy]phenyl}-1H-pyrazol-4-yl)(morpholin-4-yl)methanone] | 50.7 |
| CC1CCCN1CCCOc1ccc(-n2cc(N3CCCCC3=O)cn2)cc1 (stereo not shown) [Example 36, 1-(1-{4-[3-(2-methylpyrrolidin-1-yl)propoxy]phenyl}-1H-pyrazol-4-yl)piperidin-2-one] | 4 |
| C[C@@H]1CCCN1CCCOc1ccc(-n2cc(C(=O)N3CCOC(O)C3)cn2)cc1 (stereo partly drawn) [Example 65, (2-hydroxymorpholin-4-yl)[1-(4-{3-[(2R)-2-methylpyrrolidin-1-yl]propoxy}phenyl)-1H-pyrazol-4-yl]methanone] | 5.9 |
